Experimental data: ChEMBL document CHEMBL4028802, “DILIrank: the largest reference drug list ranked by the risk for developing drug-induced liver injury in humans” (Drug Discov Today, 2016)

Key:
[1] = species on record: Homo sapiens; test: Liver toxicity in human assessed as induction of drug-induced liver injury by measuring severity class index
[2] = species on record: Homo sapiens; test: Liver toxicity in human assessed as induction of drug-induced liver injury by measuring verified drug-induced liver injury concern status
Throughout, for DILI severity class: key of the grades not given here.

| Compound | DILI_severity_class [1] | DILI_Concern [2] |
| --- | --- | --- |
| COc1cc2nc(N(C)CCCNC(=O)C3CCCO3)nc(N)c2cc1OC (stereo unspecified) [ALFUZOSIN] | 5 | Less-Dili-Concern |
| CCOC(=O)c1cncn1[C@H](C)c1ccccc1 [ETOMIDATE] | 0 | No-Dili-Concern |
| C[C@H](CS)C(=O)N1CCC[C@H]1C(=O)O [CAPTOPRIL] | 7 | Less-Dili-Concern |
| O=P1(NCCCl)OCCCN1CCCl (stereo unspecified) [IFOSFAMIDE] | 4 | Less-Dili-Concern |
| NS(=O)(=O)c1cc(C2(O)NC(=O)c3ccccc32)ccc1Cl (stereo unspecified) [CHLORTHALIDONE] | 2 | Ambiguous-Dili-Concern |
| CC(CN1c2ccccc2Sc2ccccc21)N(C)C (stereo unspecified) [PROMETHAZINE] | 5 | Less-Dili-Concern |
| CCC1(c2ccccc2)C(=O)NC(=O)NC1=O [PHENOBARBITAL] | 3 | Less-Dili-Concern |
| COCCOC(=O)C1=C(C)NC(C)=C(C(=O)OC(C)C)C1c1cccc([N+](=O)[O-])c1 (stereo unspecified) [NIMODIPINE] | 3 | Ambiguous-Dili-Concern |
| CCCNC(=O)NS(=O)(=O)c1ccc(Cl)cc1 [CHLORPROPAMIDE] | 2 | Less-Dili-Concern |
| Cc1nc(-c2ccc(OCC(C)C)c(C#N)c2)sc1C(=O)O [FEBUXOSTAT] | 8 | Most-Dili-Concern |
| CC(C)n1c(/C=C/C(O)CC(O)CC(=O)O)c(-c2ccc(F)cc2)c2ccccc21 (stereo unspecified) [FLUVASTATIN] | 3 | Less-Dili-Concern |
| CC1OC2(CS1)CN1CCC2CC1 (stereo unspecified) [CEVIMELINE] | 3 | Ambiguous-Dili-Concern |
| CN[C@H]1CC[C@@H](c2ccc(Cl)c(Cl)c2)c2ccccc21 [SERTRALINE] | 3 | Less-Dili-Concern |
| C[C@]12CC[C@@H]3c4ccc(O)cc4CC[C@H]3[C@@H]1CC[C@@H]2O [ESTRADIOL] | 2 | Less-Dili-Concern |
| COc1cc(C(=O)NS(=O)(=O)c2ccccc2C)ccc1Cc1cn(C)c2ccc(NC(=O)OC3CCCC3)cc12 [ZAFIRLUKAST] | 8 | Most-Dili-Concern |
| CNS(=O)(=O)Cc1ccc2[nH]cc(CCN(C)C)c2c1 | 3 | Ambiguous-Dili-Concern |
| NC(=O)[C@@H]1CCCN1C(=O)[C@H](Cc1cnc[nH]1)NC(=O)[C@@H]1CCC(=O)N1 [PROTIRELIN] | 0 | No-Dili-Concern |
| Nc1ccn([C@@H]2CS[C@H](CO)O2)c(=O)n1 [LAMIVUDINE] | 3 | Less-Dili-Concern |
| O=C1Nc2ccc(Cl)cc2C(c2ccccc2)=NC1O (stereo unspecified) [OXAZEPAM] | 5 | Ambiguous-Dili-Concern |
| C#CCC(Cc1cnc2nc(N)nc(N)c2n1)c1ccc(C(=O)N[C@@H](CCC(=O)O)C(=O)O)cc1 (stereo partly specified) [PRALATREXATE] | 3 | Ambiguous-Dili-Concern |

| Compound | DILI_severity_class [1] | DILI_Concern [2] |
| --- | --- | --- |
| NC(=O)C(c1ccccc1)(c1ccccc1)[C@@H]1CCN(CCc2ccc3c(c2)CCO3)C1 [DARIFENACIN] | 0 | No-Dili-Concern |
| CC[C@H]1OC(=O)[C@H](C)[C@@H](O[C@H]2C[C@@](C)(OC)[C@@H](O)[C@H](C)O2)[C@H](C)[C@@H](O[C@@H]2O[C@H](C)C[C@H](N(C)C)[C@H]2O)[C@](C)(O)C[C@@H](C)C(=O)[C@H](C)[C@@H](O)[C@]1(C)O [ERYTHROMYCIN] | 5 | Most-Dili-Concern |
| OC(CCN1CCCC1)(c1ccccc1)C1CCCCC1 (stereo unspecified) [PROCYCLIDINE] | 0 | No-Dili-Concern |
| GALLIUM NITRATE | 3 | Ambiguous-Dili-Concern |
| O=c1n(CCCN2CCN(c3cccc(Cl)c3)CC2)nc2ccccn12 [TRAZODONE] | 5 | Less-Dili-Concern |
| C=CC[C@@H]1/C=C(\C)C[C@H](C)C[C@H](OC)[C@H]2O[C@@](O)(C(=O)C(=O)N3CCCC[C@H]3C(=O)O[C@H](/C(C)=C/[C@@H]3CC[C@@H](O)[C@H](OC)C3)[C@H](C)[C@@H](O)CC1=O)[C@H](C)C[C@@H]2OC [TACROLIMUS ANHYDROUS] | 5 | Less-Dili-Concern |
| CC(C)c1cccc(C(C)C)c1O [PROPOFOL] | 3 | Less-Dili-Concern |
| CCCCNc1ccc(C(=O)OCCOCCOCCOCCOCCOCCOCCOCCOCCOC)cc1 [BENZONATATE] | 0 | Less-Dili-Concern |
| Clc1ccc2c(c1)CCc1cccnc1C2=C1CCNCC1 [DESLORATADINE] | 3 | Less-Dili-Concern |
| C=C(c1ccc(C(=O)O)cc1)c1cc2c(cc1C)C(C)(C)CCC2(C)C [BEXAROTENE] | 8 | Most-Dili-Concern |
| Clc1cccc(Cl)c1N=C1NCCN1 [CLONIDINE] | 3 | Ambiguous-Dili-Concern |
| COC(=O)C1=C(C)NC(C)=C(C(=O)OCCN(C)Cc2ccccc2)C1c1cccc([N+](=O)[O-])c1 (stereo unspecified) [NICARDIPINE] | 3 | Ambiguous-Dili-Concern |
| C[C@H](CCC(=O)O)[C@H]1CC[C@H]2[C@@H]3[C@@H](O)C[C@@H]4C[C@H](O)CC[C@]4(C)[C@H]3CC[C@]12C [URSODIOL] | 0 | Ambiguous-Dili-Concern |
| [H]/N=C(/N)N[C@H]1[C@H](O)[C@@H](O)[C@H](O[C@@H]2O[C@@H](C)[C@](O)(C=O)[C@H]2O[C@@H]2O[C@@H](CO)[C@H](O)[C@@H](O)[C@@H]2NC)[C@@H](N/C(N)=N\[H])[C@@H]1O [STREPTOMYCIN] | 0 | No-Dili-Concern |
| CC1=C(CCC(=O)O)c2cc3[nH]c(cc4[nH]c(cc5nc(cc1n2)C(C)=C5C(C)OC(C)c1c(C)c2cc5nc(cc6nc(cc7[nH]c(cc1[nH]2)c(C)c7CCC(=O)O)C(CCC(=O)O)=C6C)C(C(C)O)=C5C)c(C)c4C(C)O)c(C)c3CCC(=O)O (stereo unspecified) | 0 | No-Dili-Concern |
| CC(=O)OCC(=O)[C@@]1(O)CC[C@H]2[C@@H]3CCC4=CC(=O)CC[C@]4(C)[C@H]3C(=O)C[C@@]21C [CORTISONE ACETATE] | 0 | No-Dili-Concern |
| CCOC(=O)Nc1ccc2c(c1)N(C(=O)CCN1CCOCC1)c1ccccc1S2 [MORICIZINE] | 5 | Ambiguous-Dili-Concern |
| CCC[C@@]1(CCc2ccccc2)CC(O)=C([C@H](CC)c2cccc(NS(=O)(=O)c3ccc(C(F)(F)F)cn3)c2)C(=O)O1 | 8 | Most-Dili-Concern |
| CN1[C@@H]2CC[C@H]1C[C@@H](OC(=O)C(CO)c1ccccc1)C2 (stereo partly specified) [ATROPINE] | 0 | No-Dili-Concern |
| VERTEPORFIN | 3 | Ambiguous-Dili-Concern |

| Compound | DILI_severity_class [1] | DILI_Concern [2] |
| --- | --- | --- |
| CCCSc1ccc2nc(NC(=O)OC)[nH]c2c1 [ALBENDAZOLE] | 7 | Most-Dili-Concern |
| O=C1CC[C@@]2(O)[C@H]3Cc4ccc(O)c5c4[C@@]2(CCN3CC2CC2)[C@H]1O5 [NALTREXONE] | 3 | Ambiguous-Dili-Concern |
| CCN(C(C)=O)c1cccc(-c2ccnc3c(C#N)cnn23)c1 [ZALEPLON] | 0 | No-Dili-Concern |
| CN1CCc2cccc3c2[C@H]1Cc1ccc(O)c(O)c1-3 [APOMORPHINE] | 0 | No-Dili-Concern |
| Cc1ccc(N(CC2=NCCN2)c2cccc(O)c2)cc1 [PHENTOLAMINE] | 0 | No-Dili-Concern |
| Cc1ccc(C(=O)c2cc(O)c(O)c([N+](=O)[O-])c2)cc1 [TOLCAPONE] | 8 | Most-Dili-Concern |
| CCC(=O)O[C@@H](O[P@](=O)(CCCCc1ccccc1)CC(=O)N1C[C@H](C2CCCCC2)C[C@H]1C(=O)O)C(C)C [FOSINOPRIL] | 3 | Less-Dili-Concern |
| NS(=O)(=O)Cc1noc2ccccc12 [ZONISAMIDE] | 2 | Less-Dili-Concern |
| CN(C)CCOc1ccc(/C(=C(/CCCl)c2ccccc2)c2ccccc2)cc1 [TOREMIFENE] | 3 | Ambiguous-Dili-Concern |
| O=C(O[C@@H]1C[C@@H]2C[C@H]3C[C@H](C1)N2CC3=O)c1c[nH]c2ccccc12 [DOLASETRON] | 3 | Ambiguous-Dili-Concern |
| CNC1(C)C2CCC(C2)C1(C)C (stereo unspecified) [MECAMYLAMINE] | 0 | No-Dili-Concern |
| NS(=O)(=O)c1cc2c(cc1Cl)N=CNS2(=O)=O [CHLOROTHIAZIDE] | 2 | Less-Dili-Concern |
| CCOC(=O)[C@H](CCc1ccccc1)N[C@@H](C)C(=O)N1Cc2ccccc2C[C@H]1C(=O)O | 3 | Less-Dili-Concern |
| Cc1oncc1C(=O)Nc1ccc(C(F)(F)F)cc1 [LEFLUNOMIDE] | 8 | Most-Dili-Concern |
| OCCN1CCN(CCCN2c3ccccc3Sc3ccc(Cl)cc32)CC1 [PERPHENAZINE] | 3 | Less-Dili-Concern |
| NC[C@@H]1O[C@H](O[C@H]2[C@@H](O)[C@H](O[C@@H]3[C@@H](O)[C@H](N)C[C@H](N)[C@H]3O[C@H]3O[C@H](CO)[C@@H](O)[C@H](O)[C@H]3N)O[C@@H]2CO)[C@H](N)[C@@H](O)[C@@H]1O [PAROMOMYCIN] | 0 | No-Dili-Concern |
| NC(=O)C[S+]([O-])C(c1ccccc1)c1ccccc1 (stereo unspecified) [MODAFINIL] | 3 | Less-Dili-Concern |
| CCCC(=O)OCOC(=O)C1=C(C)NC(C)=C(C(=O)OC)C1c1cccc(Cl)c1Cl (stereo unspecified) [CLEVIDIPINE] | 0 | No-Dili-Concern |
